Usually GI50 stands for the concentration giving 50% growth inhibition.

Results on 5 molecules are retold here after ChEMBL document CHEMBL1201862, “PubChem BioAssay data set” (2004).

Test systems include HOP-62; UACC-257; OVCAR-8; RPMI-8226; A498; IGROV-1; CCRF-CEM; ACHN; NCI-H460; MCF7; DU-145; U-251; SF-295; TK-10; EKVX; MDA-MB-435; MDA-N.
Common to all, as to experiment: DTP human tumour cell line panel, 48 h

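These data come from cells grown in 96-well plates and exposed to compound for 48 hours at five concentrations. Here, GI50 denotes the concentration required for 50% inhibition of growth.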 Active and inactive are the calls of the source. Cut-off read from the data, not from the text of the source: active = GI50 up to about 1.1 µM and inactive = higher.

Consider `c1ccc(-c2ccc(-c3ccc(C4=NCCN4)cc3)o2)cc1`, for which the GI50 was 3.67 µM (inactive) in the assay with HOP-62; 2.15 µM (inactive) in the assay on UACC-257; 3.59 µM (inactive) in the assay with OVCAR-8; 0.94 µM (active) with RPMI-8226; 1.76 µM (inactive) with A498; 2.74 µM (inactive) in the assay with IGROV-1. For the same molecule, the GI50 with CCRF-CEM is 1.56 µM (inactive); in the assay with ACHN it was 2.95 µM (inactive); with NCI-H460 it was 2.4 µM (inactive); in the assay on MCF7 it was 1.91 µM (inactive); in the assay on DU-145 it was 3.25 µM (inactive); in the assay on U-251, 1.92 µM (inactive). Besides, the GI50 in the assay with SF-295 was 1.92 µM (inactive); in the assay with TK-10, 5.41 µM (inactive); in the assay with EKVX, 3.37 µM (inactive); in the assay on MDA-MB-435 it was 1.97 µM (inactive).

On to `Cc1cc(C)n(-c2nc3ccccc3c(=O)n2-c2ccccc2)n1`, for which the GI50 in the assay on HOP-62, in the assay on UACC-257, with OVCAR-8, in the assay with MDA-N, with A498 and with IGROV-1 was > 100 µM (inactive) in each case. For the same molecule, the GI50 in the assay with CCRF-CEM, in the assay on ACHN, in the assay with NCI-H460, in the assay on MCF7, in the assay with DU-145 and in the assay on U-251 was > 100 µM (inactive) throughout. Besides, the GI50 in the assay on SF-295, with TK-10 and with MDA-MB-435 was > 100 µM (inactive) each time.

`Cc1cc2nc3c(C#N)c4c(c(Nc5ccc(Cl)cc5)n3c2cc1C)CCC4`: the GI50 is 58.7 µM (inactive) in the assay on HOP-62; 16 µM (inactive) with UACC-257; 19.3 µM (inactive) with OVCAR-8; 3.66 µM (inactive) with RPMI-8226; > 100 µM (inactive) with A498; 20.6 µM (inactive) in the assay with ACHN. Besides, the GI50 with DU-145 is 26.5 µM (inactive); with U-251, 18.9 µM (inactive); with SF-295, > 100 µM (inactive); in the assay with TK-10 it was 11.1 µM (inactive); with EKVX, 33.8 µM (inactive); in the assay on MDA-MB-435, 33.5 µM (inactive).

Consider `COc1ccc(C2=C(OC(C)=O)c3cccn3-c3ccccc3S2)cc1`, for which the GI50 in the assay on HOP-62 was 3.1 µM (inactive); with UACC-257, > 10 µM (inactive); in the assay with OVCAR-8 it was 5.82 µM (inactive); in the assay on RPMI-8226 it was 2.4 µM (inactive); in the assay on MDA-N, 0.34 µM (active); in the assay on IGROV-1 it was 4.81 µM (inactive). In addition, the GI50 is 2.9 µM (inactive) with CCRF-CEM; 3.48 µM (inactive) with MCF7; 2.46 µM (inactive) in the assay on DU-145; 1.45 µM (inactive) in the assay on SF-295; > 10 µM (inactive) with TK-10; 0.265 µM (active) with MDA-MB-435.

In the case of `N#Cc1nc(COCCOCc2ccc(F)cc2)oc1N`, the GI50 in the assay with HOP-62, in the assay with UACC-257, with OVCAR-8, in the assay on RPMI-8226, in the assay with A498 and with IGROV-1 was > 100 µM (inactive) in each case. The GI50 in the assay on CCRF-CEM was 64.6 µM (inactive); with ACHN, > 100 µM (inactive); in the assay on NCI-H460, > 100 µM (inactive); in the assay with MCF7 it was > 100 µM (inactive); in the assay with DU-145, > 100 µM (inactive); in the assay on U-251, > 100 µM (inactive). The GI50 in the assay with SF-295, in the assay with TK-10, with EKVX and in the assay on MDA-MB-435 was > 100 µM (inactive) each time.
